# Key:
# Format in all cases: in vivo
# morphine-dependent mice [1] = assay: Tolerance to hypothermic and analgesic effects of ICV morphine 24 hours after pellet removal; settings: for Jump Threshold: one hr. after ICV morphine
# Description: (§1) The level of analgesia was tested on each of the three days of the experiment. This was accomplished by measuring the jump threshold to an increasing electrical current in an electrified grid attached to a BRS/LVE #SGS-004 shock generator/scrambler (Evans, W. D., Phychopharmacol., 2, 318-325[1961]). Mice were tested only once and thereafter discarded from the experiment. When determining the effect of the peptide on overt signs of physical dependence (body temperature and weight) and tolerance (body temperature and analgesia), the peptide or vehicle was injected only once on the third day of the morphine or placebo pellet implantation (25 hours prior to the removal of the pellet).
# Tolerance to hypothermic and analgesic effects of morphine injected intracerebroventricularly (ICV) was assessed 24 hours after the removal of the pellets in mice not injected with naloxone. The ICV injection was 40 μg of morphine sulfate solution in 10 μl volume. Body temperature was recorded prior to and at 10 and 15 min. after injection of morphine. Analgesia was determined one hour after the ICV injection.
# morphine-dependent mice [2] = assay: Abrupt withdrawal after pellet removal: body temperature and body weight for 10 hours (FIG. 1); settings: Swiss Webster mice, any time point up to 10 hours
# Description: FIG. 1 illustrates the inhibition of development of physical dependence (abrupt withdrawal) by Z-Pro-D-Leu. Swiss Webster mice were implanted with either morphine or placebo tablets for a period of 3 days. Following removal of the pellets, body temperature and body weight were followed for 10 hours. Panel (a) represents the change in body temperature: (Δ--Δ) Z-Pro-D-Leu/morphine; (O--O) vehicle/morphine; ( -- ) Z-Pro-D-Leu/placebo; ( -- ) vehicle/placebo. Panel (b) represents the maximal loss in body weight during the same period.
# To determine the effects of peptide treatment on the development of physical dependence, the abstinence syndrome was precipitated using the morphine antagonist naloxone (Endo Laboratories Inc., N.Y.) at the appropriate dose (0.1, 0.25, or 0.50 mg/kg) injected intraperitoneally (IP) one hour following removal of morphine and placebo pellets. Pellet removal was performed 24 hours after the last peptide injection. These mice were monitored for changes in body temperature (see above) and body weight at 15 min. intervals for one hour after the naloxone injection. Effects of removing the pellets (withdrawing morphine) were also assessed by utilizing body temperature and weight as physical dependence parameters; however, these measurements were made at 2 hour intervals for 10 hours after the removal of the pellets. […]
# morphine-dependent mice [3] = assay: Analgesia during morphine pellet implantation: jump threshold on electrified grid; settings: peptide-injected mice receiving morphine
# Description: as §1
# Inhibition of development of tolerance to and physical dependence upon morphine by Z-Pro-D-Leu. The jump threshold in vehicle-injected, morphine-dependent mice decreased, indicating development of tolerance to the analgesic properties of morphine. Threshold scores were: 4.00±0.18;3.50±0.52; 2.55±0.44; on days 1-3 respectively, (n=6 for each group).
# morphine-dependent mice [4] = assay: Body temperature, body weight and mortality during 3-day morphine pellet implantation with multiple peptide injections
# Description: Male C57B1/6J, Swiss Webster, and ICR mice weighing 26±4 g (SD) were used in these studies.
# (§2) The mice were randomly divided into two groups. One received SC injections of water (vehicle) while the other received the peptide under investigation (50 μg/mouse on day one). Two hours later the mice were further subdivided and each subgroup was implanted with placebo or morphine pellets. The injections of vehicle and peptide were repeated 24 and 48 hours after the first injection in their respective groups. Morphine pellets containing 75 mg of morphine free base were implanted subcutaneously (SC) between 10-11 A.M. and were removed 3 days later at the same time. The control animals were implanted with placebo pellets. Body temperature and weight were measured daily at 11 A.M. Temperature was measured using a lubricated rectal probe inserted 2.5 cm into the rectum and measured with a telethermometer (Model 43TA Yellow Springs Instrument Co., Yellow Springs, Ohio).
# A similar relationship was found for the loss in body weight. Swiss Webster mice lost 16% and 14% in body weight when receiving Z-Pro-D-Leu or vehicle respectively. The C57B1/6J mice given Z-Pro-D-Leu/morphine lost 14%, while the vehicle/morphine group lost 11% in body weight during this period regardless of peptide or vehicle injections. There was one significant strain difference, i.e. a greater mortality during morphine treatment of C57B1/6J mice ([…], Binomial test).
# morphine-dependent mice [5] = assay: Naloxone-precipitated withdrawal: body temperature and withdrawal signs
# [6] = Brain levels of morphine, fluorometric; settings: Swiss Webster mice, third day of morphine treatment, n=6
# Description: Brain levels of morphine were measured in mice which received either the peptide or vehicle injections. For these studies mice were also sacrificed on the third day following morphine implantation. The mice were then sacrificed by decapitation, brains were rapidly removed, frozen on dry ice, and stored at -80° C. until assay for morphine content. Brain morphine concentrations were determined fluorometrically (Bhargava, H. N., J. Pharma. Sci., 66, 1044-1045[1977]).
# morphine-dependent mice [7] = assay: Naloxone-precipitated withdrawal: body temperature and withdrawal signs; remark: listed apart in the source
# Description: as §2
# To determine the effects of peptide treatment on the development of physical dependence, the abstinence syndrome was precipitated using the morphine antagonist naloxone (Endo Laboratories Inc., N.Y.) at the appropriate dose (0.1, 0.25, or 0.50 mg/kg) injected intraperitoneally (IP) one hour following removal of morphine and placebo pellets. Pellet removal was performed 24 hours after the last peptide injection. These mice were monitored for changes in body temperature (see above) and body weight at 15 min. intervals for one hour after the naloxone injection. Effects of removing the pellets (withdrawing morphine) were also assessed by utilizing body temperature and weight as physical dependence parameters; however, these measurements were made at 2 hour intervals for 10 hours after the removal of the pellets. Placebo implanted mice were treated in the same manner as the morphine pellet implanted mice.
# [8] = C57B1/6J, Z-Pro-D-Leu/morphine, peptide day 3 only, n=6, ICV morphine challenge
# [9] = C57B1/6J, Z-Pro-D-Leu/placebo pellets, n=8, ICV morphine challenge
# [10] = C57B1/6J, Z-Pro-D-Leu/placebo, peptide day 3 only, n=6, ICV morphine challenge
# [11] = Swiss Webster, Z-Pro-D-Leu/morphine pellets, n=15, ICV morphine challenge
# [12] = Swiss Webster, Z-Pro-D-Leu/placebo pellets, n=8, ICV morphine challenge
substance,measurement,setting,value
Z-Pro-D-Leu,Δt (15 min.),"morphine-dependent mice [1]; C57B1/6J, Z-Pro-D-Leu/morphine pellets, n=9, ICV morphine challenge",-2.12 ± 0.52
same,Δt (10 min.),"morphine-dependent mice [1]; C57B1/6J, Z-Pro-D-Leu/morphine pellets, n=9, ICV morphine challenge 24 hrs after pellet removal",-2.04 ± 0.42
same,Δt (10 min.),morphine-dependent mice [1]; [8],-0.75 ± 0.19
same,Δt (15 min.),morphine-dependent mice [1]; [8],-1.00 ± 0.16
same,Jump Threshold,"morphine-dependent mice [1]; C57B1/6J, Z-Pro-D-Leu/morphine, peptide day 3 only, n=6",2.12 ± 0.34
same,Δt (10 min.),morphine-dependent mice [1]; [9],-1.76 ± 0.33
same,Δt (15 min.),morphine-dependent mice [1]; [9],-2.19 ± 0.41
same,Jump Threshold,"morphine-dependent mice [1]; C57B1/6J, Z-Pro-D-Leu/placebo pellets, n=8",3.79 ± 0.39
same,Δt (10 min.),morphine-dependent mice [1]; [10],-1.85 ± 0.25
same,Δt (15 min.),morphine-dependent mice [1]; [10],-1.88 ± 0.17
same,Jump Threshold,"morphine-dependent mice [1]; C57B1/6J, Z-Pro-D-Leu/placebo, peptide day 3 only, n=6",4.05 ± 0.85
same,Δt (10 min.),morphine-dependent mice [1]; [11],-1.10 ± 0.29
same,Δt (15 min.),morphine-dependent mice [1]; [11],-1.32 ± 0.34
same,Jump Threshold,"morphine-dependent mice [1]; Swiss Webster, Z-Pro-D-Leu/morphine pellets, n=15",4.33 ± 0.54
same,Δt (10 min.),morphine-dependent mice [1]; [12],-1.16 ± 0.30
same,Δt (15 min.),morphine-dependent mice [1]; [12],-1.48 ± 0.46
same,Jump Threshold,"morphine-dependent mice [1]; Swiss Webster, Z-Pro-D-Leu/placebo pellets, n=8",4.18 ± 0.41
same,response to ICV injection of morphine,morphine-dependent mice [1]; peptide given during chronic morphine treatment,not significantly different from morphine-naive mice
same,response to ICV injection of morphine,morphine-dependent mice [1]; peptide given only on the third day of pellet implantation,did not effectively alter the manifestation of tolerance
same,"hypothermia and loss of body weight during abstinence, peptide/morphine versus the two control groups",morphine-dependent mice [2],no significant difference
same,jump threshold score,morphine-dependent mice [3]; day 1,4.07±0.27
same,jump threshold score,morphine-dependent mice [3]; day 2,4.27±0.62
same,jump threshold score,morphine-dependent mice [3]; day 3,4.45±0.64
same,"number of deaths, peptide/morphine compared with vehicle/morphine","morphine-dependent mice [4]; C57B1/6J P=0.32, Swiss Webster P=0.65, Binomial test",no difference in the number of deaths
same,body temperature (X) on the third day of morphine treatment,"morphine-dependent mice [4]; Swiss Webster mice, morphine pellets, multiple injections of peptide 50 μg/mouse SC, day 3, n=14",-1.5 °C
same,body temperature on days 1 and 2 versus vehicle,"morphine-dependent mice [4]; Swiss Webster or C57B1/6J mice receiving morphine, days 1 and 2",no significant difference in body temperature
same,"Withdrawal, % of control","morphine-dependent mice [5]; Table III, dose 0.5 μg",100%
same,"Withdrawal, % of control","morphine-dependent mice [5]; Table III, dose 5 μg",25%
same,"Δt, °C.","morphine-dependent mice [5]; Table III, dose 5 μg",-0.05 ± 0.37 °C
same,body temperature response 30 min after naloxone,morphine-dependent mice [5]; peptide injection only on the third day of morphine treatment,hypothermic response
same,body temperature response 30 min after naloxone,"morphine-dependent mice [5]; peptide/morphine treatment, multiple injections, naloxone 0.1-0.50 mg/kg IP",mild hyperthermia
same,brain morphine levels,[6],288 ± 99 µg/g
same,"Withdrawal, % of control (jumping, shakes, diarrhea)","morphine-dependent mice [7]; Table II, peptide 50 μg per mouse, naloxone 0.1 mg/kg",9%
same,"Δt, °C. (difference in body temperature just prior to naloxone and 30 min. thereafter)","morphine-dependent mice [7]; Table II, peptide 50 μg per mouse, naloxone 0.1 mg/kg, mean ± SD",-0.09 ± 0.58 °C
same,"Withdrawal, % of control","morphine-dependent mice [7]; Table III, dose 50 μg",9%
same,"Δt, °C.","morphine-dependent mice [7]; Table III, dose 50 μg",-0.09 ± 0.58 °C
same,lowest dose still effective in blocking physical dependence on morphine,"morphine-dependent mice [7]; dose-response experiments, Table III",5 μg per mouse
same,ability to block development of physical dependence on morphine,"morphine-dependent mice [7]; naloxone-precipitated withdrawal, Tables II and III",exhibited activity
